# Measured values as given in patent US5756472A, “Antifungal agent obtained from hormonema” (Merck & Co., Inc., priority 1997, dated 1998).
# Experiments:
# [1] = system: Candida guillermondii (MY1019); test: broth microdilution assay (MIC/MFC); type: cell-based; conditions: 24 hours, 35°-37° C.
# Experimental: (§1) In the microbroth dilution assay, microorganisms were selected by streaking a yeast culture on Sabouraud dextrose agar (SDA) and incubating for 24-48 hours at 35°-37° C. Three to five characteristic colonies were selected and transferred to a fresh plate and incubated under similar conditions. From the regrowth, 3 to 5 colonies were selected and suspended in 10 milliliters of YM broth (Difco) and incubated for 4 hours at 35°-37° C. shaking at 225 rpm. The 4 hour broth cultures were adjusted optically to 86% transmission resulting in a concentration of 1-5×10^6 cfu/ml which was further diluted 1:100 in YNBD (yeast nitrogen base with 1% dextrose) to obtain a concentration of 1-5×10^4 cfu/ml for use as inocula.
# (§2) The test compound was dissolved at […] in 10% DMSO and diluted 2× into the first well to achieve a concentration of 256 μg/ml at 5% DMSO in the first well. Compounds are subsequently serially diluted 2× and cell suspension is added to each well resulting in an additional 2× dilution of compound. 75 μl of said solution is delivered to each well in column 1 of a 96-well, U-bottomed plate. The compounds in column 1 were then serially diluted two-fold to yield concentrations from 128 μg/ml to 0.03 μg/ml.
# (§3) The plates containing the diluted compounds were then inoculated with 75 μl/well of the appropriate microorganism and incubated for 48 hours at 35°-37° C. with MIC (minimum inhibitory concentration) determinations carried out after 24 hours of incubation (except Cryptococcus strains which are read at 48 hours). Growth and sterility controls for each organism and sterility checks for the compounds also were carried out.
# (§4) After recording MICs at 24 hours, the microtiter plates were shaken gently to resuspend the cells. A 1.5 μl sample was transferred from each well of the 96-well plate to a single reservoir inoculum plate containing SDA. The inoculated SDA and corresponding microtiter plates were incubated for 24 hours at 35°-37° C. For Cryptococcus neoformans, SDA plates were inoculated at 48 hours after recording MICs and incubated 48 hours before reading the MFC. MFC is the lowest concentration of compound at which either no growth or growth of <4 colonies occur.
# [2] = system: Candida pseudotropicalis (MY2099); test: broth microdilution assay (MIC/MFC); type: cell-based; conditions: Kluyveromyces marxianus, 24 hours, 35°-37° C.
# Experimental: as §1, §2, §3, §4
# [3] = system: Cryptococcus neoformans (MY2061); test: broth microdilution assay (MIC/MFC); type: cell-based
# Experimental: as §1, §2, §3, §4
# [4] = system: Candida albicans (CLY539); test: broth microdilution assay (MIC/MFC); type: cell-based; conditions: 24 hours, 35°-37° C.
# Experimental: as §1, §2, §3, §4
# [5] = system: Cryptococcus neoformans (MY2062); test: broth microdilution assay (MIC/MFC); type: cell-based
# Experimental: as §1, §2, §3, §4
# [6] = system: Saccharomyces cerevisiae (MY2140); test: broth microdilution assay (MIC/MFC); type: cell-based; conditions: 24 hours, 35°-37° C.
# Experimental: as §1, §2, §3, §4
# [7] = system: Candida tropicalis (MY1124); test: broth microdilution assay (MIC/MFC); type: cell-based; conditions: 24 hours, 35°-37° C.
# Experimental: as §1, §2, §3, §4
# [8] = system: Candida albicans (CA2); test: broth microdilution assay (MIC/MFC); type: cell-based; conditions: 24 hours, 35°-37° C.
# Experimental: as §1, §2, §3, §4
# [9] = system: Candida krusei; test: broth microdilution assay (MIC/MFC); type: cell-based; conditions: Pichia kudriavzevii, 24 hours, 35°-37° C.
# Experimental: as §1, §2, §3, §4
# [10] = system: Candida glabrata (MY1381); test: broth microdilution assay (MIC/MFC); type: cell-based; conditions: Nakaseomyces glabratus, 24 hours, 35°-37° C.
# Experimental: as §1, §2, §3, §4
# [11] = system: Candida parapsilosis (MY1010); test: broth microdilution assay (MIC/MFC); type: cell-based; conditions: Lodderomyces parapsilosis, 24 hours, 35°-37° C.
# Experimental: as §1, §2, §3, §4
# [12] = system: Candida tropicalis (MY1012); test: broth microdilution assay (MIC/MFC); type: cell-based; conditions: 24 hours, 35°-37° C.
# Experimental: as §1, §2, §3, §4
# [13] = system: Candida albicans (MY1055); test: broth microdilution assay (MIC/MFC); type: cell-based; conditions: 24 hours, 35°-37° C.
# Experimental: as §1, §2, §3, §4
# [14] = system: Aspergillus fumigatus (MY5668); test: broth microdilution assay (MIC/MEC); type: cell-based; conditions: 24 hours
# Experimental: as §1, §2, §3
# (§5) No MFC values are indicated for Aspergillus fumigatus since colony counts are unreliable with filamentous species. Instead, a Minimum Effective Concentration (MEC) is reported. The MEC is defined as the lowest concentration of drug which effects a severe morphological change in the cells. The MEC is scored macroscopically by direct observation of the plate wells after 24 hours and reflects microscopic alterations in cell morphology (Kurtz et al, AAC 1994 38:1480-1489).
# [15] = system: Aspergillus fumigatus (MY4839); test: broth microdilution assay (MIC/MEC); type: cell-based; conditions: 24 hours
# Experimental: as §1, §2, §3, §5
# [16] = system: Aspergillus flavus, Fusarium oxysporum, Ustilago zeae and the like; test: agar plate inhibition zone test against filamentous fungi; type: cell-based; conditions: agar plates, methanol solutions, 28° C. or 37° C., 24 hours
# Experimental: The compound is also useful for inhibiting the growth of filamentous fungi. Such use may be illustrated in the following tests with Aspergillus flavus, Fusarium oxysporum, Ustilago zeae and the like. Inocula for filamentous fungi are prepared by scraping the surface of stock plates maintained on potato dextrose agar with a moistened sterile dacron swab. The spores and mycelia are then suspended in 10 milliliters of sterile potato dextrose broth and adjusted to 70 percent transmission at 660 nm. The samples to be tested for production of antifungal agent are applied directly to the agar plates as methanol solutions. When the sample to be tested is crude broth, it may be centrifuged prior to application. The assay plates are then incubated at either 28° C. or 37° C. for 24 hours. Following incubation, the inhibition zones are measured. Effects on growth are also noted as to appearance.
# [17] = system: panel of fungi; test: broth microdilution assay, comparison with amphotericin B; type: cell-based; conditions: MIC and MFC
# Experimental: as §1, with “inocula. […]” for “inocula.”
# as §3, with “Growth and sterility controls for each organism and sterility checks for the compounds also were carried out.” left out
# After recording MICs at 24 hours, the microtiter plates were shaken gently to resuspend the cells. […] For Cryptococcus neoformans, SDA plates were inoculated at 48 hours after recording MICs and incubated 48 hours before reading the MFC. […]
# [18] = interconversion of the two diastereomers; type: physicochemical; conditions: normal temperatures
# [19] = read-out: MIC (minimum inhibitory concentration)
# [20] = SDA, no growth or <4 colonies, read-out: MFC (minimum fungicidal concentration)
# [21] = SDA inoculated at 48 hours, incubated 48 hours, no growth or <4 colonies, read-out: MFC (minimum fungicidal concentration)
# [22] = read at 48 hours, 35°-37° C., read-out: MIC (minimum inhibitory concentration)
# [23] = 35°-37° C., read-out: MIC (minimum inhibitory concentration)
# [24] = lowest concentration effecting severe morphological change, read-out: MEC (Minimum Effective Concentration)
structure (smiles),measurement,setting,value
CC(=O)OC1CC23C4=CCC5(C)C(C(=O)O)C(C)(C(C)C(C)C)CCC5(C)C4CCC2C(C)(COC3O)C1OC1OC(CO)C(O)C(O)C1O (stereo not drawn) [Compound I],MIC,[1]; [19],1 µg/mL
same,MFC,[1]; [20],2 µg/mL
same,MIC,[2]; [19],0.5 µg/mL
same,MFC,[2]; [20],1 µg/mL
same,MFC,[3]; [21],32 µg/mL
same,MIC,[3]; [22],32 µg/mL
same,MIC,[4]; [19],0.5 µg/mL
same,MFC,[4]; [20],0.5 µg/mL
same,MFC,[5]; [21],128 µg/mL
same,MIC,[5]; [22],32 µg/mL
same,MIC,[6]; [19],2 µg/mL
same,MFC,[6]; [20],2 µg/mL
same,MIC,[7]; [19],16 µg/mL
same,MFC,[7]; [20],16 µg/mL
same,MIC,[8]; [19],> 128 µg/mL
same,MFC,[8]; [20],> 128 µg/mL
same,MIC,[9]; [19],4 µg/mL
same,MFC,[9]; [20],1 µg/mL
same,MIC,[10]; [19],1 µg/mL
same,MFC,[10]; [20],0.5 µg/mL
same,MIC,[11]; [19],0.25 µg/mL
same,MFC,[11]; [20],0.25 µg/mL
same,MIC,[12]; [19],1 µg/mL
same,MFC,[12]; [20],1 µg/mL
same,MIC,[13]; [19],0.5 µg/mL
same,MFC,[13]; [20],0.25 µg/mL
same,MIC,[14]; [23],32 µg/mL
same,minimal effective concentration,[14]; [24],0.031 µg/mL
same,MIC,[15]; [23],64 µg/mL
same,minimal effective concentration,[15]; [24],0.031 µg/mL
same,inhibition of growth of filamentous fungi,[16],effectively inhibit growth of the fungal organisms
same,"effectiveness against a panel of fungi, compared with amphotericin B",[17],"at concentrations comparable to an established antifungal agent, amphotericin B"
same,reequilibration of separated diastereomers,[18],reequilibrate at normal temperatures
